Some test systems named below: LOX IMVI melanoma; MOLT-4 leukemia; SK-MEL-2 melanoma; SW-620 colon; EKVX NSCLC; A549 NSCLC; NCI-H522 lung; ACHN renal; K-562 leukemia; SF-268 CNS.
Test in all cases: inhibition of tumour cell growth, NCI panel, 48 h

This is an account of results in PubChem BioAssay (NCI).

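Values below derive from 48-hour exposures of cells grown in 96-well plates, with endpoints linearly interpolated between the two concentrations bracketing the appropriate inhibition level. GI50 is the concentration that inhibits growth by half. The concentration for full growth arrest is given as TGI.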

In the case of `NS(=O)(=O)c1ccc(N=Nc2c(O)[nH]c3cccc(CCc4ccncc4)c23)cc1`, the GI50 in the experiment with LOX IMVI melanoma, with MOLT-4 leukemia, in the experiment with SK-MEL-2 melanoma, with SW-620 colon, with EKVX NSCLC and with A549 NSCLC was above 25 µM in each case. The GI50 in the experiment with NCI-H522 lung was above 25000 nM; in the experiment on ACHN renal, above 25 µM; in the experiment with K-562 leukemia, above 25 µM; in the experiment with SF-268 CNS, above 25 µM. The TGI with LOX IMVI melanoma, in the experiment with MOLT-4 leukemia, in the experiment with SK-MEL-2 melanoma, with SW-620 colon, in the experiment on EKVX NSCLC and with A549 NSCLC was above 25 µM throughout. The TGI with NCI-H522 lung, in the experiment with ACHN renal, in the experiment with K-562 leukemia and in the experiment on SF-268 CNS was above 25 µM in each case.
For `Cc1cc(S(=O)(=O)Nc2n[nH]c(-c3ccc(Cl)cc3)c2C#N)c(S)cc1Cl`, the GI50 with LOX IMVI melanoma, with MOLT-4 leukemia, with SK-MEL-2 melanoma, in the experiment on SW-620 colon, in the experiment on EKVX NSCLC and in the experiment on A549 NSCLC was above 100 µM each time. For the same compound, the GI50 in the experiment with NCI-H522 lung is above 100000 nM; in the experiment with ACHN renal it was above 100 µM; in the experiment on K-562 leukemia, above 100 µM; in the experiment with SF-268 CNS, above 100 µM. Further, the TGI in the experiment with LOX IMVI melanoma, in the experiment with MOLT-4 leukemia, in the experiment with SK-MEL-2 melanoma, in the experiment on SW-620 colon, in the experiment on EKVX NSCLC and in the experiment on A549 NSCLC was above 100 µM in each case. Besides, the TGI in the experiment on NCI-H522 lung, in the experiment on ACHN renal, in the experiment with K-562 leukemia and in the experiment with SF-268 CNS was above 100 µM in each case.
On to `COc1c(O)cc2c(c1CC=C(C)C)OC(=O)c1c(cc(O)c(CC=C(C)C)c1O)O2`, for which the GI50 in the experiment with LOX IMVI melanoma was 3.53 µM; with MOLT-4 leukemia it was 4.1 µM; in the experiment on SK-MEL-2 melanoma, 4.38 µM; with SW-620 colon, 3.42 µM; in the experiment with EKVX NSCLC, 4.67 µM; with A549 NSCLC it was 4.26 µM. The GI50 in the experiment on NCI-H522 lung was 4160 nM; in the experiment on ACHN renal, 3.93 µM; in the experiment on K-562 leukemia it was 5.91 µM; in the experiment on SF-268 CNS it was 4.26 µM. Moreover, the TGI in the experiment with LOX IMVI melanoma is 7.68 µM; in the experiment with MOLT-4 leukemia it was 12.7 µM; with SK-MEL-2 melanoma, 8.58 µM; with SW-620 colon, 7.05 µM; in the experiment with EKVX NSCLC it was 8.74 µM; with A549 NSCLC it was 8.28 µM. For the same compound, the TGI in the experiment on NCI-H522 lung is 8.06 µM; in the experiment with ACHN renal it was 7.49 µM; in the experiment with K-562 leukemia, 17 µM; in the experiment on SF-268 CNS it was 7.82 µM.
As for `O=C([CH-]C(=O)c1ccccc1)c1ccccc1.O=C([CH-]C(=O)c1ccccc1)c1ccccc1.[CH2-]CCC.[CH2-]CCC.[Sn+4]`, the GI50 with LOX IMVI melanoma was 0.405 µM; with MOLT-4 leukemia, 0.253 µM; with SK-MEL-2 melanoma, 0.223 µM; with SW-620 colon, 0.133 µM; in the experiment on EKVX NSCLC, 1.17 µM; in the experiment on A549 NSCLC, 1.82 µM. The GI50 in the experiment with NCI-H522 lung was 29.3 nM; in the experiment with ACHN renal it was 0.457 µM; in the experiment with K-562 leukemia, 0.15 µM; in the experiment with SF-268 CNS, 0.458 µM. The TGI in the experiment on LOX IMVI melanoma was 1.59 µM; with MOLT-4 leukemia, 0.754 µM; in the experiment with SK-MEL-2 melanoma it was 0.883 µM; in the experiment with SW-620 colon, 0.325 µM; with EKVX NSCLC, 2.7 µM; with A549 NSCLC, 4.12 µM. The TGI with NCI-H522 lung turned out to be 0.13 µM; in the experiment with ACHN renal it was 1.6 µM; in the experiment with K-562 leukemia, 0.746 µM; in the experiment with SF-268 CNS, 1.86 µM.
In the case of `CNC(=O)N(CCCC(NC(C)=O)C(=O)NCc1ccccc1)Cc1ccccc1` (stereo not given), the TGI with LOX IMVI melanoma, in the experiment on MOLT-4 leukemia, with SK-MEL-2 melanoma, with SW-620 colon, with EKVX NSCLC and in the experiment on A549 NSCLC was above 100 µM each time. In addition, the TGI in the experiment on NCI-H522 lung, with ACHN renal, in the experiment with K-562 leukemia and in the experiment with SF-268 CNS was above 100 µM each time.
In the case of `N#CCC(=O)N/N=C(/C(=O)Nc1ccccc1)C1C(=O)N(c2ccccc2)N=C1N` (stereo not given), the TGI with LOX IMVI melanoma, in the experiment on MOLT-4 leukemia, in the experiment with SK-MEL-2 melanoma, in the experiment with SW-620 colon, with EKVX NSCLC and in the experiment on A549 NSCLC was above 100 µM in each case. Also, the TGI with NCI-H522 lung, with ACHN renal, in the experiment on K-562 leukemia and in the experiment with SF-268 CNS was above 100 µM throughout.
Take `O=C(CSc1nc2ccc([N+](=O)[O-])cc2[nH]1)Nc1ccc([N+](=O)[O-])cc1`: the GI50 in the experiment on LOX IMVI melanoma is 2.75 µM; in the experiment on MOLT-4 leukemia, 2.81 µM; in the experiment with SK-MEL-2 melanoma, 1.97 µM; with SW-620 colon, 3.24 µM; in the experiment on EKVX NSCLC, 2.23 µM; in the experiment on A549 NSCLC it was 2.94 µM. The GI50 with NCI-H522 lung was 1690 nM; with ACHN renal it was 2.49 µM; with K-562 leukemia, 2.49 µM; in the experiment with SF-268 CNS it was 2.72 µM. The TGI in the experiment with LOX IMVI melanoma is 12.2 µM; in the experiment with MOLT-4 leukemia, above 32.3 µM; with SK-MEL-2 melanoma, 5.81 µM; with SW-620 colon, 17.6 µM; in the experiment on EKVX NSCLC it was 10.8 µM; with A549 NSCLC it was 14.2 µM. Further, the TGI in the experiment with NCI-H522 lung was 9.01 µM; in the experiment with ACHN renal, 8.02 µM; with K-562 leukemia, above 100 µM; with SF-268 CNS, 14.5 µM.
